US20260265244A1, “HETEROCYCLIC COMPOUNDS AS STING ANTAGONISTS” (Boehringer Ingelheim International GmbH, priority 2022, published 2026)

System: STING inhibition in human whole blood (IFNα2α production)
Test: Human whole blood assay (HWBA): cGAMP-stimulated IFNα2α production
Assay type: cell-based
Settings: Homo sapiens
Summary of the method: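 Na-citrate human whole blood from ≥3 healthy donors, preincubated 60 min at room temperature with compound (8 concentrations, top 10 μM, ~1:5 steps, 0.1% DMSO), then stimulated with cGAMP and incubated 22 h at 37 °C. Plasma IFNα2α measured by MSD immunoassay; % control versus stimulated/unstimulated wells, IC50 by 4-parameter logistic fit.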

Row | IC50 [nM] | Structure (SMILES)
1 | 140 | Cc1nc2nn(C)cc2cc1-n1nc(-c2cccc3nn(C[C@H](O)c4ccc(F)cc4)cc23)c(C(C)C)c1C [Example 46, (1R)-2-[4-(1-{2,6-dimethyl-2H-pyrazolo[3,4-b]pyridin-5-yl}-5-methyl-4-(propan-2-yl)-1H-pyrazol-3-yl)-2H-indazol-2-yl]-1-(4-fluorophenyl)ethan-1-ol]
2 | 150 | Cc1c(C(C)C)c(-c2cccc3nn(C[C@H](O)c4ccccc4)cc23)nn1-c1cc2cn(C)nc2nc1C1CCOC1 (stereo partly drawn) [Example 47, (1R)-2-(4-{5-methyl-1-[2-methyl-6-(oxolan-3-yl)-2H-pyrazolo[3,4-b]pyridin-5-yl]-4-(propan-2-yl)-1H-pyrazol-3-yl}-2H-indazol-2-yl)-1-phenylethan-1-ol]
3 | 150 | CCCn1cc2cc(-c3nc(-c4cccc5nn(CC(F)(F)c6ccccc6)cc45)c(C4CC4)n3C)c(C3CC3)nc2n1 [Example 48, 4-(5-cyclopropyl-2-{6-cyclopropyl-2-propyl-2H-pyrazolo[3,4-b]pyridin-5-yl}-1-methyl-1H-imidazol-4-yl)-2-(2,2-difluoro-2-phenylethyl)-2H-indazole]
4 | 160 | Cc1nc2nn(CCCN3CCOCC3)cc2cc1-n1nc(-c2cccc3nn(C[C@H](F)c4ccccc4)cc23)c(C(C)C)c1C [Example 49, 2-[(2R)-2-fluoro-2-phenylethyl]-4-(5-methyl-1-{6-methyl-2-[3-(morpholin-4-yl)propyl]-2H-pyrazolo[3,4-b]pyridin-5-yl}-4-(propan-2-yl)-1H-pyrazol-3-yl)-2H-indazole]
5 | 160 | Cc1c(C(C)C)c(-c2cccc3nn(C[C@H](O)c4ccccc4)cc23)nn1-c1cc2cn(C)nc2[n+]([O-])c1C1CC1 [Example 50, 6-cyclopropyl-5-(3-{2-[(2R)-2-hydroxy-2-phenylethyl]-2H-indazol-4-yl}-5-methyl-4-(propan-2-yl)-1H-pyrazol-1-yl)-2-methyl-2H-pyrazolo[3,4-b]pyridin-7-ium-7-olate]
6 | 170 | Cc1c(C(C)C)c(-c2cccc3nn(C[C@H](O)c4ccccc4)cc23)nn1-c1cc2cn(C)nc2nc1C1(F)CC1 [Example 51, (1R)-2-(4-{1-[6-(1-fluorocyclopropyl)-2-methyl-2H-pyrazolo[3,4-b]pyridin-5-yl]-5-methyl-4-(propan-2-yl)-1H-pyrazol-3-yl}-2H-indazol-2-yl)-1-phenylethan-1-ol]
7 | 180 | CO[C@@H](Cn1cc2c(-c3nn(-c4cc5cn(C)nc5nc4C)c(C)c3C(C)C)cccc2n1)c1ccccc1 [Example 52, 4-(1-{2,6-dimethyl-2H-pyrazolo[3,4-b]pyridin-5-yl}-5-methyl-4-(propan-2-yl)-1H-pyrazol-3-yl)-2-[(2R)-2-methoxy-2-phenylethyl]-2H-indazole]
8 | 190 | Cc1c(C(C)C)c(-c2cccc3nn(C[C@H](O)c4ccccc4)cc23)nn1-c1cc2cn(C)nc2nc1C1CCC1 [Example 53, (1R)-2-[4-(1-{6-cyclobutyl-2-methyl-2H-pyrazolo[3,4-b]pyridin-5-yl}-5-methyl-4-(propan-2-yl)-1H-pyrazol-3-yl)-2H-indazol-2-yl]-1-phenylethan-1-ol]
9 | 200 | Cc1c(C(C)C)c(-c2cccc3nn(C[C@H](O)c4ccccc4)cc23)nn1-c1cc2cn(C)nc2nc1CC1CC1 [Example 54, (1R)-2-(4-{1-[6-(cyclopropylmethyl)-2-methyl-2H-pyrazolo[3,4-b]pyridin-5-yl]-5-methyl-4-(propan-2-yl)-1H-pyrazol-3-yl}-2H-indazol-2-yl)-1-phenylethan-1-ol]
10 | 200 | Cn1cc2cc(-c3nc(-c4cccc5nn(C[C@H](O)c6ccc(O)cc6)cc45)c(C4CC4)n3C)c(C3CC3)nc2n1 [Example 55, 4-[(1R)-2-[4-(5-cyclopropyl-2-{6-cyclopropyl-2-methyl-2H-pyrazolo[3,4-b]pyridin-5-yl}-1-methyl-1H-imidazol-4-yl)-2H-indazol-2-yl]-1-hydroxyethyl]phenol]
11 | 210 | Cc1nc2nn(CC3CC3)cc2cc1-n1nc(-c2cccc3nn(C[C@H](O)c4ccccc4)cc23)c(C(C)C)c1C [Example 56, (1R)-2-(4-{1-[2-(cyclopropylmethyl)-6-methyl-2H-pyrazolo[3,4-b]pyridin-5-yl]-5-methyl-4-(propan-2-yl)-1H-pyrazol-3-yl}-2H-indazol-2-yl)-1-phenylethan-1-ol]
12 | 230 | CC(C)c1c(-c2cccc3nn(C[C@H](O)c4ccccc4)cc23)nc(-c2cc3cn(C)nc3nc2C(F)(F)F)n1C [Example 57, (1R)-2-(4-{1-methyl-2-[2-methyl-6-(trifluoromethyl)-2H-pyrazolo[3,4-b]pyridin-5-yl]-5-(propan-2-yl)-1H-imidazol-4-yl}-2H-indazol-2-yl)-1-phenylethan-1-ol]
13 | 230 | COC(C)c1nc2nn(C)cc2cc1-n1nc(-c2cccc3nn(C[C@H](O)c4ccccc4)cc23)c(C(C)C)c1C (stereo partly drawn) [Example 58, (1R)-2-(4-{1-[6-(1-methoxyethyl)-2-methyl-2H-pyrazolo[3,4-b]pyridin-5-yl]-5-methyl-4-(propan-2-yl)-1H-pyrazol-3-yl}-2H-indazol-2-yl)-1-phenylethan-1-ol]
14 | 240 | CCCc1nc2nn(C)cc2cc1-n1nc(-c2cccc3nn(C[C@H](O)c4ccccc4)cc23)c(C(C)C)c1C [Example 60, (1R)-2-[4-(5-methyl-1-{2-methyl-6-propyl-2H-pyrazolo[3,4-b]pyridin-5-yl}-4-(propan-2-yl)-1H-pyrazol-3-yl)-2H-indazol-2-yl]-1-phenylethan-1-ol]
15 | 300 | Cc1nc2nn(Cc3ncnn3C)cc2cc1-n1nc(-c2cccc3nn(C[C@H](O)c4ccccc4)cc23)c(C(C)C)c1C [Example 62, (1R)-2-[4-(5-methyl-1-{6-methyl-2-[(1-methyl-1H-1,2,4-triazol-5-yl)methyl]-2H-pyrazolo[3,4-b]pyridin-5-yl}-4-(propan-2-yl)-1H-pyrazol-3-yl)-2H-indazol-2-yl]-1-phenylethan-1-ol]
16 | 300 | Cc1nc2nn(C)cc2cc1-n1nc(-c2cccc3nn(C[C@H](OCC4CC4)c4ccccc4)cc23)c(C(C)C)c1C [Example 63, 2-[(2R)-2-(cyclopropylmethoxy)-2-phenylethyl]-4-(1-{2,6-dimethyl-2H-pyrazolo[3,4-b]pyridin-5-yl}-5-methyl-4-(propan-2-yl)-1H-pyrazol-3-yl)-2H-indazole]
17 | 300 | Cc1c(C(C)C)c(-c2cccc3nn(C[C@H](O)c4ccccc4)cc23)nn1-c1cc2cn(C)nc2nc1C(F)F [Example 64, (1R)-2-(4-{1-[6-(difluoromethyl)-2-methyl-2H-pyrazolo[3,4-b]pyridin-5-yl]-5-methyl-4-(propan-2-yl)-1H-pyrazol-3-yl}-2H-indazol-2-yl)-1-phenylethan-1-ol]
18 | 320 | Cc1nc2nn(C)cc2cc1-n1nc(-c2cccc3nn(CCc4ccc(OCCN(C)C)cc4)cc23)c(C(C)C)c1C [Example 65, [2-(4-{2-[4-(1-{2,6-dimethyl-2H-pyrazolo[3,4-b]pyridin-5-yl}-5-methyl-4-(propan-2-yl)-1H-pyrazol-3-yl)-2H-indazol-2-yl]ethyl}phenoxy)ethyl]dimethylamine]
19 | 320 | Cc1nc2nn(C)cc2cc1-n1nc(-c2cccc3nn(C[C@H](OCCCCO)c4ccccc4)cc23)c(C(C)C)c1C [Example 66, 4-[(1R)-2-[4-(1-{2,6-dimethyl-2H-pyrazolo[3,4-b]pyridin-5-yl}-5-methyl-4-(propan-2-yl)-1H-pyrazol-3-yl)-2H-indazol-2-yl]-1-phenylethoxy]butan-1-ol]
